The values that follow come from patent EP4810052A2, “HCRHR2 SELECTIVE POLYPEPTIDES” (Gubra A/S, priority 2023, dated 2026).

The nature of one series: PK in mice. It is filed as in vivo. More on the design: T½ / MRT: unit: h. Conditions: Mouse. As to the method: Lean male NMRI/RjHan mice were obtained from JanVier (JanVier Labs, France) at 6 weeks of age. The animals were single housed under a 12/12 h dark-light cycle, light off at 3 PM. Room temperature was controlled to 22°C ± 1°C, with 60 % ± 20% humidity. Animals had ad libitum access to regular rodent chow (Altromin 1324, Brogaarden, Denmark) and tap water.
After 2 weeks of acclimatization, the animals were randomized into treatment groups (n=9 per group) based on body weight. Animals were dosed IV with one peptide and SC with another peptide (15 or 50 nmol/kg) Plasma samples were collected for PK analysis at times 0.17, 1, 3, 6, 24, 30, 48, 72 and 96 hours post dosing in a sparse sampling design with 3 mice per group per timepoint. Plasma samples were analyzed using LC-MSMS and PK parameters were estimated by Non-Compartmental Analysis (NCA).

Series [1] in a line: Effect on acute food intake in mice. It is filed as in vivo. Conditions: single subcutaneous dose. As to the method: Male NMRI mice were obtained from JanVier (JanVier Labs, France) at 5 weeks of age. The animals were group-housed 4 mice pr. cage under a 12/12 h dark-light cycle, light off at 1 PM. Room temperature was controlled to 22°C ± 1°C, with 60 % ± 20% humidity. Animals had ad libitum access to regular rodent chow (Altromin 1324, Brogaarden, Denmark) and tap water.
Animals were transferred 5-7 days before the start of the study to a real-time food intake monitoring system, HM-2 system (MBRose, Denmark) to allow acclimatization to experimental conditions. As the animals were uniquely identified with microchips, each individual animal was identified by its microchip upon entry and exit from the food channel. Randomization of the mice for each study group (n=7-8) was based on body weight measured the day before the start of the study. A vehicle-treated group was included in each experiment. Six hours before the start of the dark phase, animals were fasted. One hour before the dark phase, animals were dosed once subcutaneously with test peptide. Food intake was reported hourly for a period of 72 hours. The percentage of food intake reduction was normalized to average food intake from the vehicle group. Statistical significance was evaluated using One-way analysis of variance with Dunnett's multiple comparison test. P < 0.05 was considered statistically significant.
Selected compounds were tested according to the general procedure on acute food intake in mice to determine the effect of a single subcutaneous dose on food intake in mice over 3 days.

A short description of series [2]: Chemical stability of purified peptides (RP-UHPLC main peak purity loss). The series is classed as physicochemical. The gist of the method:
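Peptides at about 1.0 mg/ml in 50 mM phosphate buffer pH 7.5, or pH-adjusted for the pH series, were incubated at 40 °C for 14 and 28 days. Main-peak purity was taken as main-peak area over total area by RP-UHPLC (UV 215 nm, C8, 50 °C). Purity loss was calculated versus T0.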

Setting [3] is: pH 7.5, 40°C, 14 days, first value of cell.
Where [4] appears, read: pH 7.5, 40°C, 28 days, second value of cell.

Molecules are shown by their SMILES. Marks after values point to notes of the source that are not given here. Starred links: 1 amine or outer side, 2 acyl side, 3 side chain; linkers in the order of their positions; H or OH if unused. Non-standard residues stand in square brackets, D forms with d. Residues, ends and D or L forms follow the SMILES beside them. Groups on a side chain read outwards from the residue. *: point of attachment. C20 diacid = O=C(O)CCCCCCCCCCCCCCCCCCC(=O)*; γGlu = O=C(O)[C@H](CCC(=O)[*:2])N[*:1]; NMeI = CC[C@H](C)[C@H](NC)C(=O)O; Nle = CCCC[C@H](N)C(=O)O; AEEA = NCCOCCOCC(=O)O

Take `CC[C@H](C)[C@H](NC)C(=O)N[C@H](C(=O)N[C@@H](CC(C)C)C(=O)N[C@@H](CO)C(=O)N[C@@H](CC(C)C)C(=O)N[C@@H](CC(=O)O)C(=O)N[C@H](C(=O)N1CCC[C@H]1C(=O)N[C@H](C(=O)NCC(=O)N[C@@H](CC(C)C)C(=O)N[C@@H](CC(C)C)C(=O)N[C@@H](CCC(N)=O)C(=O)N[C@H](C(=O)N[C@@H](CC(C)C)C(=O)N[C@@H](CC(C)C)C(=O)N[C@@H](CCC(=O)O)C(=O)N[C@@H](CCC(N)=O)C(=O)N[C@@H](C)C(=O)N[C@@H](CCCNC(=N)N)C(=O)N[C@@H](C)C(=O)N[C@@H](CCCNC(=N)N)C(=O)N[C@@H](C)C(=O)N[C@@H](C)C(=O)N[C@@H](CCCNC(=N)N)C(=O)N[C@@H](CCC(=O)O)C(=O)N[C@@H](CCC(N)=O)C(=O)N[C@@H](C)C(=O)N[C@@H](CCCCNC(=O)COCCOCCNC(=O)COCCOCCNC(=O)CC[C@H](NC(=O)CC[C@H](NC(=O)CCCCCCCCCCCCCCCCCCC(=O)O)C(=O)O)C(=O)O)C(=O)N[C@H](C(=O)N[C@@H](CC(N)=O)C(=O)N[C@@H](C)C(=O)N[C@@H](CCC(=O)O)C(=O)N[C@H](C(=O)N[C@@H](CC(C)C)C(=O)N[C@@H](C)C(=O)N[C@@H](CCC(=O)O)C(=O)N[C@H](C(N)=O)C(C)C)[C@@H](C)CC)[C@@H](C)O)[C@@H](C)CC)[C@@H](C)CC)C(C)C)C(C)C` [SEQ ID NO: 5] (H-[NMeI]VLSLDVPIGLLQILLEQARARAAREQAK([AEEA-AEEA-γGlu-γGlu-C20 diacid])TNAEILAEV-NH2): the MRT in “PK in mice” is on record as 21. Also, the T½ in the series “PK in mice” stood at 14.3. Also, the “% FI compared to vehicle, 24 h post-dosing” value (from here on “% FI compared to vehicle”) in series [1] (30 nmol/kg) is reported as 45.67*** %; in series [1] (100 nmol/kg) it was 18.68*** %; in series [1] (300 nmol/kg), 15.93*** %.
Turning to `CC[C@H](C)[C@H](N)C(=O)N[C@H](C(=O)N[C@@H](CC(C)C)C(=O)N[C@@H](CO)C(=O)N[C@@H](CC(C)C)C(=O)N[C@@H](CC(=O)O)C(=O)N[C@H](C(=O)N1CCC[C@H]1C(=O)N[C@H](C(=O)NCC(=O)N[C@@H](CC(C)C)C(=O)N[C@@H](CC(C)C)C(=O)N[C@@H](CCC(N)=O)C(=O)N[C@H](C(=O)N[C@@H](CC(C)C)C(=O)N[C@@H](CC(C)C)C(=O)N[C@@H](CCC(=O)O)C(=O)N[C@@H](CCC(N)=O)C(=O)N[C@@H](C)C(=O)N[C@@H](CCCNC(=N)N)C(=O)N[C@@H](C)C(=O)N[C@@H](CCCNC(=N)N)C(=O)N[C@@H](C)C(=O)N[C@@H](C)C(=O)N[C@@H](CCCNC(=N)N)C(=O)N[C@@H](CCC(=O)O)C(=O)N[C@@H](CCC(N)=O)C(=O)N[C@@H](C)C(=O)N[C@@H](CCCCNC(=O)COCCOCCNC(=O)COCCOCCNC(=O)CC[C@H](NC(=O)CC[C@H](NC(=O)CCCCCCCCCCCCCCCCCCC(=O)O)C(=O)O)C(=O)O)C(=O)N[C@@H](CCC(=O)O)C(=O)N[C@@H](CC(N)=O)C(=O)N[C@@H](C)C(=O)N[C@@H](CCC(=O)O)C(=O)N[C@H](C(=O)N[C@@H](CC(C)C)C(=O)N[C@@H](C)C(=O)N[C@@H](CCC(=O)O)C(=O)N[C@H](C(N)=O)C(C)C)[C@@H](C)CC)[C@@H](C)CC)[C@@H](C)CC)C(C)C)C(C)C` [SEQ ID NO: 17] (H-IVLSLDVPIGLLQILLEQARARAAREQAK([AEEA-AEEA-γGlu-γGlu-C20 diacid])ENAEILAEV-NH2), the “Chemical stability at pH 7.5 after 14 days at 40°C (% degradation)” value in series [2] (setting [3]) is -1.6%. The “Chemical stability at pH 7.5 after 28 days at 40°C (% degradation)” value in series [2] (setting [4]) is -2.6%. In addition, the “% FI compared to vehicle” value in series [1] (30 nmol/kg) is reported as 78.97* %; in series [1] (100 nmol/kg), 48.64*** %; in series [1] (300 nmol/kg), 19.52*** %.
`CC[C@H](C)[C@H](N)C(=O)N[C@H](C(=O)N[C@@H](CC(C)C)C(=O)N[C@@H](CO)C(=O)N[C@@H](CC(C)C)C(=O)N[C@@H](CC(=O)O)C(=O)N[C@H](C(=O)N1CCC[C@H]1C(=O)N[C@H](C(=O)NCC(=O)N[C@@H](CC(C)C)C(=O)N[C@@H](CC(C)C)C(=O)N[C@@H](CCC(N)=O)C(=O)N[C@H](C(=O)N[C@@H](CC(C)C)C(=O)N[C@@H](CC(C)C)C(=O)N[C@@H](CCC(=O)O)C(=O)N[C@@H](CCC(N)=O)C(=O)N[C@@H](C)C(=O)N[C@@H](CCCNC(=N)N)C(=O)N[C@@H](C)C(=O)N[C@@H](CCCNC(=N)N)C(=O)N[C@@H](C)C(=O)N[C@@H](C)C(=O)N[C@@H](CCCNC(=N)N)C(=O)N[C@@H](CCC(=O)O)C(=O)N[C@@H](CCC(N)=O)C(=O)N[C@@H](C)C(=O)N[C@H](C(=O)N[C@@H](CCCCNC(=O)COCCOCCNC(=O)COCCOCCNC(=O)CC[C@H](NC(=O)CC[C@H](NC(=O)CCCCCCCCCCCCCCCCCCC(=O)O)C(=O)O)C(=O)O)C(=O)N[C@@H](CC(N)=O)C(=O)N[C@@H](C)C(=O)N[C@@H](CCC(=O)O)C(=O)N[C@H](C(=O)N[C@@H](CC(C)C)C(=O)N[C@@H](C)C(=O)N[C@@H](CCC(=O)O)C(=O)N[C@H](C(N)=O)C(C)C)[C@@H](C)CC)[C@@H](C)O)[C@@H](C)CC)[C@@H](C)CC)C(C)C)C(C)C` [SEQ ID NO: 4] (H-IVLSLDVPIGLLQILLEQARARAAREQATK([AEEA-AEEA-γGlu-γGlu-C20 diacid])NAEILAEV-NH2): the “Chemical stability at pH 7.5 after 14 days at 40°C (% degradation)” value in series [2] (setting [3]) is given as -1.3%. In addition, in series [2] (setting [4]), the “Chemical stability at pH 7.5 after 28 days at 40°C (% degradation)” value is recorded as -3.9%. This molecule also gave an MRT in “PK in mice” of 18.2. For the same molecule, the T½ in “PK in mice” is reported as 14.8. In addition, the “% FI compared to vehicle” value in series [1] (30 nmol/kg) is recorded as 63.41*** %; in series [1] (100 nmol/kg), 19.33*** %; in series [1] (300 nmol/kg), 18.14*** %.
Take `CCCC[C@H](NC(=O)[C@@H](NC(=O)[C@H](CCC(=O)O)NC(=O)[C@H](C)NC(=O)[C@H](CC(N)=O)NC(=O)[C@H](CCC(=O)O)NC(=O)[C@H](CCCCNC(=O)COCCOCCNC(=O)COCCOCCNC(=O)CC[C@H](NC(=O)CC[C@H](NC(=O)CCCCCCCCCCCCCCCCCCC(=O)O)C(=O)O)C(=O)O)NC(=O)[C@H](C)NC(=O)[C@H](CCC(N)=O)NC(=O)[C@H](CCC(=O)O)NC(=O)[C@H](CCCNC(=N)N)NC(=O)[C@H](C)NC(=O)[C@H](C)NC(=O)[C@H](CCCNC(=N)N)NC(=O)[C@H](C)NC(=O)[C@H](CCCNC(=N)N)NC(=O)[C@H](C)NC(=O)[C@H](CCC(N)=O)NC(=O)[C@H](CO)NC(=O)[C@H](CC(C)C)NC(=O)[C@H](CC(C)C)NC(=O)[C@@H](NC(=O)[C@H](CCC(N)=O)NC(=O)[C@H](CC(C)C)NC(=O)[C@H](CC(C)C)NC(=O)CNC(=O)[C@@H](NC(=O)[C@@H]1CCCN1C(=O)[C@@H](NC(=O)[C@H](CC(=O)O)NC(=O)[C@H](CC(C)C)NC(=O)[C@H](CO)NC(=O)[C@H](CC(C)C)NC(=O)[C@@H](NC(=O)[C@@H](NC)[C@@H](C)CC)C(C)C)C(C)C)[C@@H](C)CC)[C@@H](C)CC)[C@@H](C)CC)C(=O)N[C@@H](C)C(=O)N[C@@H](CCC(=O)O)C(=O)N[C@H](C(N)=O)C(C)C` [compound 101] (H-[NMeI]VLSLDVPIGLLQILLSQARARAAREQAK([AEEA-AEEA-γGlu-γGlu-C20 diacid])ENAEI[Nle]AEV-NH2): the “Chemical stability at pH 7.5 after 14 days at 40°C (% degradation)” value in series [2] (pH 7.5, 14 days, 40°C) is -2.2%. For the same molecule, the “Chemical stability at pH 7.5 after 28 days at 40°C (% degradation)” value in series [2] (pH 7.5, 28 days, 40°C) is -4.3%. Further, the figures for the “% FI compared to vehicle” value in series [1] (30 nmol/kg), in series [1] (100 nmol/kg) and in series [1] (300 nmol/kg) were 30.85*** %, 21.44*** % and 8.09*** %, respectively.
